Where “and” joins values, the source holds several entries; their conditions need not be identical. Equal values may be shown once. Inconclusive results and toxic doses are left out. Square brackets hold non-standard residues; d marks the D form. Peptide text beside a SMILES is read from it. * marks the point of attachment. ξ: configuration not given here. ξAsp(βξ-Me) = CC(C(=O)O)C(N)C(=O)O; X11 = CC(N*)C1NC(=O)C2CCCCN2C1=O; ξAbu(3ξ-NH2) = CC(N)C(N)C(=O)O; X10 = CCC(C)CCC/C=C/CC(=O)*
Test system: P388 leukemia ip, CD2F1 mice, survival T/C
Experiment: NCI In Vivo Anticancer Drug Screen. Data for tumor model P388 Leukemia (intraperitoneal) in CD2F1 (CDF1) mice
Settings: endpoint: median survival time, higher = longer survival
Procedure, shortened: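 Mice carrying the transplanted tumor received test compound or vehicle. Survival was recorded in each group, and the value is the treated-group measurement divided by that of the vehicle-treated control group.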

[1] = dose: 12.5 mg/kg/injection, schedule: Q01DX009 (ip), vehicle: saline
[2] = dose: 25.0 mg/kg/injection, schedule: Q01DX009 (ip), vehicle: saline
[3] = dose: 50.0 mg/kg/injection, schedule: Q01DX009 (ip), vehicle: saline with Tween-80
[4] = dose: 50.0 mg/kg/injection, schedule: Q01DX009 (ip), vehicle: saline
[5] = dose: 200.0 mg/kg/injection, schedule: Q01DX009 (ip), vehicle: saline with Tween-80
[6] = dose: 100.0 mg/kg/injection, schedule: Q01DX009 (ip), vehicle: saline with Tween-80
[7] = dose: 50.0 mg/kg/injection, schedule: Q01DX005 (ip), vehicle: Klucel (hydroxypropylcellulose) (HPC)
[8] = dose: 50.0 mg/kg/injection, schedule: Q01DX005 (ip), vehicle: saline with Tween-80
[9] = dose: 100.0 mg/kg/injection, schedule: Q01DX005 (ip), vehicle: saline with Tween-80
[10] = dose: 200.0 mg/kg/injection, schedule: Q01DX005 (ip), vehicle: saline with Tween-80

CCN1CC2(C)CCC(O)C34C2C(OC)C(O)(C13)C1(O)CC(OC)C2CC4(O)C1C2OC(=O)c1ccccc1 (stereo not drawn)
T/C (dose: 1.0 mg/kg/injection, schedule: Q01DX005 (ip), vehicle: saline + alcohol): 102 % of control | T/C (dose: 2.0 mg/kg/injection, schedule: Q01DX005 (ip), vehicle: saline + alcohol): 106 % of control | T/C (dose: 4.0 mg/kg/injection, schedule: Q01DX005 (ip), vehicle: saline + alcohol): 108 % of control | T/C (dose: 8.0 mg/kg/injection, schedule: Q01DX005 (ip), vehicle: saline + alcohol): 100 % of control

O=C1CC2C(CC3OC(=O)C4C3C23COC4(O)C(O)C3)c2occc21 (stereo not drawn)
T/C (dose: 100.0 mg/kg/injection, schedule: Q01DX001 (ip), vehicle: saline with Tween-80): 104 % of control | T/C (dose: 200.0 mg/kg/injection, schedule: Q01DX001 (ip), vehicle: saline with Tween-80): 101 % of control

CCOP(=O)(NCCCOC)OCC
T/C (dose: 25.0 mg/kg/injection, schedule: Q01DX005 (ip), vehicle: saline): 97 % of control | T/C (dose: 50.0 mg/kg/injection, schedule: Q01DX005 (ip), vehicle: saline): 100 % of control | T/C (dose: 100.0 mg/kg/injection, schedule: Q01DX005 (ip), vehicle: saline): 99 % of control

CCCCCCCCCCCCCCCCN1C(=O)/C(=C\c2ccc(O)cc2)SC1=Nc1ccccc1
T/C [1]: 90 % of control | T/C [2]: 88 % of control | T/C [3]: 95 % of control | T/C [4]: 91 % of control | T/C [5]: 92 % of control

O=C(c1ccccc1)C1OC1c1ccccc1 (stereo not drawn)
T/C [3]: 104 % of control | T/C [6]: 105 % of control and 97 % of control | T/C [5]: 103 % of control and 114 % of control | T/C (dose: 400.0 mg/kg/injection, schedule: Q01DX009 (ip), vehicle: saline with Tween-80): 109 % of control and 123 % of control | T/C (dose: 600.0 mg/kg/injection, schedule: Q01DX009 (ip), vehicle: saline with Tween-80): 87 % of control

C/C=C/C/C=C/CCC(=O)C1OC1C(N)=O (stereo not drawn)
T/C (dose: 8.0 mg/kg/injection, schedule: Q01DX009 (ip), vehicle: Klucel (hydroxypropylcellulose) (HPC)): 93 % of control | T/C (dose: 16.0 mg/kg/injection, schedule: Q01DX009 (ip), vehicle: Klucel (hydroxypropylcellulose) (HPC)): 93 % of control | T/C (dose: 32.0 mg/kg/injection, schedule: Q01DX009 (ip), vehicle: Klucel (hydroxypropylcellulose) (HPC)): 102 % of control | T/C (dose: 64.0 mg/kg/injection, schedule: Q01DX009 (ip), vehicle: Klucel (hydroxypropylcellulose) (HPC)): 93 % of control

NNC(=O)c1nnc(N)o1
T/C (dose: 60.0 mg/kg/injection, schedule: Q01DX005 (ip), vehicle: saline with Tween-80): 106 % of control | T/C (dose: 120.0 mg/kg/injection, schedule: Q01DX005 (ip), vehicle: saline with Tween-80): 106 % of control | T/C (dose: 240.0 mg/kg/injection, schedule: Q01DX005 (ip), vehicle: saline with Tween-80): 95 % of control

CC(C)(C)c1ccc2c(c1)C(O)(c1ccccc1)C1OC1(C(C)(C)C)C2=O (stereo not drawn)
T/C [4]: 106 % of control | T/C (dose: 100.0 mg/kg/injection, schedule: Q01DX009 (ip), vehicle: saline): 100 % of control | T/C (dose: 200.0 mg/kg/injection, schedule: Q01DX009 (ip), vehicle: saline): 91 % of control

O=C(NC(C(=O)O)C1CC(Cl)=NO1)OCC1c2ccccc2-c2ccccc21 (stereo not drawn)
T/C (dose: 3.1 mg/kg/injection, schedule: Q04DX003 (ip), vehicle: other): 104 % of control | T/C (dose: 6.2 mg/kg/injection, schedule: Q04DX003 (ip), vehicle: other): 116 % of control | T/C (dose: 12.5 mg/kg/injection, schedule: Q04DX003 (ip), vehicle: other): 120 % of control | T/C (dose: 25.0 mg/kg/injection, schedule: Q04DX003 (ip), vehicle: other): 120 % of control and 123 % of control | T/C (dose: 100.0 mg/kg/injection, schedule: Q04DX003 (ip), vehicle: other): 157 % of control | T/C (dose: 200.0 mg/kg/injection, schedule: Q04DX003 (ip), vehicle: other): 150 % of control

CC(C)=CCC(C)/C(=N\[N+](C)(C)C)c1ccccc1 (stereo not drawn)
T/C (dose: 6.25 mg/kg/injection, schedule: Q01DX009 (ip), vehicle: saline): 94 % of control | T/C [1]: 99 % of control | T/C [2]: 101 % of control and 116 % of control

O=C(Cc1ccc(-c2ccccc2)cc1)Nc1ccccn1
T/C [3]: 99 % of control | T/C [6]: 108 % of control | T/C [5]: 105 % of control

[Tl][S][Tl]
T/C (dose: 6.25 mg/kg/injection, schedule: Q01DX009 (ip), vehicle: Klucel (hydroxypropylcellulose) (HPC)): 102 % of control | T/C (dose: 12.5 mg/kg/injection, schedule: Q01DX009 (ip), vehicle: Klucel (hydroxypropylcellulose) (HPC)): 100 % of control

Clc1ccc2c(NCCC3CCCN4CCCCC34)ccnc2c1 (stereo not drawn)
T/C (dose: 12.5 mg/kg/injection, schedule: Q01DX005 (ip), vehicle: Klucel (hydroxypropylcellulose) (HPC)): 100 % of control | T/C (dose: 25.0 mg/kg/injection, schedule: Q01DX005 (ip), vehicle: Klucel (hydroxypropylcellulose) (HPC)): 103 % of control | T/C [7]: 100 % of control and 97 % of control

CC(C)N(c1ccnc(F)n1)C(C)C
T/C (dose: 30.0 mg/kg/injection, schedule: Q01DX005 (ip), vehicle: Klucel (hydroxypropylcellulose) (HPC)): 102 % of control | T/C (dose: 60.0 mg/kg/injection, schedule: Q01DX005 (ip), vehicle: Klucel (hydroxypropylcellulose) (HPC)): 104 % of control

COc1ccc(-c2oc(=O)cc(-c3ccccc3)c2-c2ccccc2)cc1
T/C [8]: 112 % of control | T/C [9]: 93 % of control | T/C [10]: 87 % of control

CCC1OCC(C(Cl)CCl)O1 (stereo not drawn)
T/C [8]: 102 % of control | T/C [9]: 111 % of control | T/C (dose: 132.0 mg/kg/injection, schedule: Q01DX009 (ip), vehicle: saline with Tween-80): 100 % of control | T/C [10]: 103 % of control | T/C [5]: 118 % of control | T/C (dose: 300.0 mg/kg/injection, schedule: Q01DX009 (ip), vehicle: saline with Tween-80): 118 % of control

CN=C(N)N/N=C/c1c2ccccc2c(Cl)c2ccccc12
T/C (dose: 25.0 mg/kg/injection, schedule: Q04DX002 (ip), vehicle: saline with Tween-80): 114 % of control

O=C(Nc1ccc(C(=O)O)cc1)Oc1ccc(N(CCCl)CCCl)cc1
T/C (dose: 25.0 mg/kg/injection, schedule: Q01DX009 (ip), vehicle: saline with Tween-80): 209 % of control | T/C [3]: 159 % of control | T/C (dose: 66.0 mg/kg/injection, schedule: Q04DX003 (ip), vehicle: saline with Tween-80): 200 % of control | T/C (dose: 100.0 mg/kg/injection, schedule: Q04DX003 (ip), vehicle: saline with Tween-80): 181 % of control and 200 % of control

CCCCn1c2nc(=O)n(C)c(=O)c-2cc2ccccc21
T/C [3]: 110 % of control and 90 % of control | T/C (dose: 66.0 mg/kg/injection, schedule: Q01DX009 (ip), vehicle: saline with Tween-80): 103 % of control | T/C [6]: 102 % of control | T/C (dose: 150.0 mg/kg/injection, schedule: Q01DX009 (ip), vehicle: saline with Tween-80): 103 % of control | T/C [5]: 120 % of control and 98 % of control

O=C1c2ccccc2C(=O)N1c1ccc(Nc2nc(Nc3ccc(N4C(=O)c5ccccc5C4=O)cc3)nc(N(C3CCCCC3)C3CCCCC3)n2)cc1
T/C [8]: 94 % of control | T/C [9]: 87 % of control

CN1CCN(Cc2ccccc2)C(C#N)C1 (stereo not drawn)
T/C (dose: 3.13 mg/kg/injection, schedule: Q01DX005 (ip), vehicle: water): 100 % of control | T/C (dose: 6.25 mg/kg/injection, schedule: Q01DX005 (ip), vehicle: water): 95 % of control | T/C (dose: 12.5 mg/kg/injection, schedule: Q01DX005 (ip), vehicle: water): 93 % of control | T/C (dose: 25.0 mg/kg/injection, schedule: Q01DX005 (ip), vehicle: water): 100 % of control | T/C (dose: 50.0 mg/kg/injection, schedule: Q01DX005 (ip), vehicle: water): 105 % of control and 112 % of control | T/C (dose: 100.0 mg/kg/injection, schedule: Q01DX005 (ip), vehicle: water): 105 % of control

O=C(Nc1cccc(Cl)c1)Sc1c(Cl)c(Cl)c(Cl)c(Cl)c1Cl
T/C [3]: 106 % of control | T/C [6]: 109 % of control | T/C [5]: 112 % of control

C/C=C/CC1(CC)C(=O)NC(=S)NC1=O
T/C [3]: 100 % of control

COc1ccc2c(c1)C(O)NC(=O)O2 (stereo not drawn)
T/C [7]: 98 % of control | T/C (dose: 100.0 mg/kg/injection, schedule: Q01DX005 (ip), vehicle: Klucel (hydroxypropylcellulose) (HPC)): 103 % of control | T/C (dose: 200.0 mg/kg/injection, schedule: Q01DX005 (ip), vehicle: Klucel (hydroxypropylcellulose) (HPC)): 119 % of control

CN(C)c1ccc2c(Oc3ccccc3)cc(N)nc2c1
T/C [8]: 94 % of control | T/C [9]: 92 % of control | T/C [10]: 92 % of control

CCC(C)CCC/C=C/CC(=O)NC(CC(=O)O)C(=O)NC(C(=O)NC(CC(=O)O)C(=O)NCC(=O)NC(CC(=O)O)C(=O)NCC(=O)NC(C(=O)NC(C(=O)N1CCCC1C(=O)NC(C)C1NC(=O)C2CCCCN2C1=O)C(C)C)C(C)N)C(C)C(=O)O (stereo not drawn) (X10-D[ξAsp(βξ-Me)]DGDG[ξAbu(3ξ-NH2)]VP-X11; configuration not given here)
T/C (dose: 25.0 mg/kg/injection, schedule: Q01DX009 (ip), vehicle: saline + alcohol): 103 % of control | T/C (dose: 50.0 mg/kg/injection, schedule: Q01DX009 (ip), vehicle: saline + alcohol): 103 % of control | T/C (dose: 100.0 mg/kg/injection, schedule: Q01DX009 (ip), vehicle: saline + alcohol): 107 % of control and 88 % of control

— PubChem BioAssay AID330 (DTP/NCI, 2004)
